Assay results as given in patent US20200172549A1, “NOVEL CHLORIN E6-CURCUMIN DERIVATIVES, PREPARATION METHOD THEREOF, AND PHARMACEUTICAL COMPOSITION CONTAINING THE SAME FOR TREATMENT OF CANCER” (DONG SUNG PHARM. CO., LTD., priority 2017, published 2020).

What was measured:
[1] = Dark cytotoxicity, MTT assay, AsPC-1; format: cell-based; details: human, AsPC-1 pancreatic cancer cells, 3 h, no light, 72 h incubation, read-out: Cell viability, Dark Cytotoxicity against AsPC-1; for viability at 3.12 μM: 3.12 μM photosensitizer; for viability at 6.25 μM: 6.25 μM photosensitizer; for viability at 12.5 μM: 12.5 μM photosensitizer; for viability at 25 μM: 25 μM photosensitizer; for viability at 50 μM: 50 μM photosensitizer
Experimental: (§1) Dark cytotoxicity: The culture of AsPC-1 pancreatic cancer cells were grown in RPMI-1640 medium (life technologies corporation, USA) supplemented with 10% heat-inactivated fetal bovine serum (life technologies corporation, USA) and 1 penicillin (life technologies corporation, USA), whereas MIA-paca2 and PANC-1 cells were grown in DMEM. The MTT assay was used to assess the cell viability of AsPC-1, MIA-paca2, PANC-1 cells. The cells attached to a 96-well plate (5,000 cells/well) were treated with 3.125 μM, 6.25 μM, 12.5 μM, 25 μM, 50 μM of photosensitizers, 7, 10, 13, 16, and 3 for 3 h. The cells were then incubated for 72 h at 37° C. in a 5% CO2 incubator and exposed to MTT [3-(4,5-dimethylthiazol-2-yl)-2,5-diphenyl-tetrazolium bromide] (250 μg/ml) for 3 h. The solution was changed to 200 μl of dimethylsulfoxide (DMSO, Sigma). After 30 min incubation and shaking in microplate mixer, the optical density (OD) was measured using a microplate reader (Thermo Fisher scientific, USA) at 570 nm wavelength. The cell viability was calculated using the following formula: Cell viability (%)=Mean optical density of treated wells/Mean optical density of control wells×100.

[2] = Dark cytotoxicity, MTT assay, MIA-PaCa-2; format: cell-based; details: human, MIA-PaCa-2 cells, 3 h, no light, 72 h incubation, read-out: Cell viability, Dark cytotoxicity against MIA-PaCa-2; for viability at 3.12 μM: 3.12 μM photosensitizer; for viability at 6.25 μM: 6.25 μM photosensitizer; for viability at 12.5 μM: 12.5 μM photosensitizer; for viability at 25 μM: 25 μM photosensitizer; for viability at 50 μM: 50 μM photosensitizer
Experimental: as §1

[3] = test system: AsPC-1 pancreatic cancer cells; assay: Phototoxicity (PDT), MTT assay, AsPC-1; format: cell-based; details: for Cell viability, Phototoxicity against AsPC-1: 3 h, 50 mW 0.09 J/cm^2 laser 100 sec, 72 h incubation
Experimental: as §1, with “Phototoxicity: The culture” for “Dark cytotoxicity: The culture”, “USA) and 1% penicillin (life” for “USA) and 1 penicillin (life”, “3 h. The photosensitized cells were then irradiated with a 50 mW, 0.09 J/cm^2 laser for 100 sec. The cells” for “3 h. The cells”

PANC-1 = assay: Phototoxicity (PDT), MTT assay, PANC-1; format: cell-based; details: for Cell viability, Phototoxicity against PANC-1: 3 h, 50 mW 0.09 J/cm^2 laser 100 sec, 72 h incubation
Experimental: as §1, with “Phototoxicity: The culture” for “Dark cytotoxicity: The culture”, “USA) and 1% penicillin (life” for “USA) and 1 penicillin (life”, “3 h. The photosensitized cells were then irradiated with a 50 mW, 0.09 J/cm^2 laser for 100 sec. The cells” for “3 h. The cells”

MIA-PaCa-2 = assay: Phototoxicity (PDT), MTT assay, MIA-PaCa-2; format: cell-based; details: for Cell viability, Phototoxicity against MIA-PaCa-2: 3 h, 50 mW 0.09 J/cm^2 laser 100 sec, 72 h incubation
Experimental: as §1, with “Phototoxicity: The culture” for “Dark cytotoxicity: The culture”, “USA) and 1% penicillin (life” for “USA) and 1 penicillin (life”, “3 h. The photosensitized cells were then irradiated with a 50 mW, 0.09 J/cm^2 laser for 100 sec. The cells” for “3 h. The cells”

[4] = Photophysical properties (absorption) in DMSO; format: physicochemical
Experimental: The photophysical properties of Ce6-curcumin conjugates and dimethyl ester ce6 were analyzed in dimethyl sulfoxide (DMSO). All the photosensitizers 7, 10, 13, and 16 (Formula IV) effectively absorbed the red light compared to dimethyl ester ce6. The major soret peak at λmax=405-408 nm and Q-bands at 667 nm for the photosensitizers 7, 10, 13, and 16 (Formula IV) and Q band peak at 656 for dimethyl ester ce6.

C=Cc1c(C)c2cc3nc(c(CC(=O)O)c4[nH]c(cc5nc(cc1[nH]2)C(C)=C5CC)c(C)c4C(=O)O)[C@@H](CCC(=O)O)[C@@H]3C [Compound 3, Chlorin e6]
viability at 3.12 μM [1]: 98.8% | viability at 6.25 μM [1]: 101% | viability at 12.5 μM [1]: 100% | viability at 25 μM [1]: 99.6% | viability at 50 μM [1]: 100% | viability at 3.12 μM [2]: 98.8% | viability at 6.25 μM [2]: 101% | viability at 12.5 μM [2]: 100% | viability at 25 μM [2]: 99.6% | viability at 50 μM [2]: 100% | Cell viability, Phototoxicity against AsPC-1 ([3]; 3.12 μM photosensitizer): 91.05% | Cell viability, Phototoxicity against AsPC-1 ([3]; 6.25 μM photosensitizer): 76.65% | Cell viability, Phototoxicity against AsPC-1 ([3]; 12.5 μM photosensitizer): 66.31% | Cell viability, Phototoxicity against AsPC-1 ([3]; 25 μM photosensitizer): 37.32% | Cell viability, Phototoxicity against AsPC-1 ([3]; 50 μM photosensitizer): 17.52% | inhibition at 25 µM ([3]; Homo sapiens, ASPC1, 25 μM concentration, with light): 63% | Cell viability, Phototoxicity against PANC-1 (PANC-1; 3.12 μM photosensitizer): 104.37% | Cell viability, Phototoxicity against PANC-1 (PANC-1; 6.25 μM photosensitizer): 82.85% | Cell viability, Phototoxicity against PANC-1 (PANC-1; 12.5 μM photosensitizer): 30.03% | Cell viability, Phototoxicity against PANC-1 (PANC-1; 25 μM photosensitizer): 8.57% | Cell viability, Phototoxicity against PANC-1 (PANC-1; 50 μM photosensitizer): 7.61% | inhibition at 25 µM (PANC-1; Homo sapiens, PANC-1, 25 μM concentration, with light): 91%

C=Cc1c(C)c2cc3nc(c(CC(=O)OC)c4[nH]c(cc5nc(cc1[nH]2)C(C)=C5CC)c(C)c4C(=O)NCCCCCCNC(=O)CCCC(=O)Oc1ccc(/C=C/C(=O)CC(=O)/C=C/c2ccc(O)c(OC)c2)cc1OC)C(CCC(=O)OC)C3C (stereo not drawn) [Compound 10, Chlorine e6-curcumin Conjugate (10)]
viability at 3.12 μM [1]: 96.5% | viability at 6.25 μM [1]: 98.2% | viability at 12.5 μM [1]: 98.5% | viability at 25 μM [1]: 95% | viability at 50 μM [1]: 78.8% | viability at 3.12 μM [2]: 89.7% | viability at 6.25 μM [2]: 82% | viability at 12.5 μM [2]: 75.1% | viability at 25 μM [2]: 66.4% | viability at 50 μM [2]: 48.7% | Cell viability, Phototoxicity against AsPC-1 ([3]; 3.12 μM photosensitizer): 85.90% | Cell viability, Phototoxicity against AsPC-1 ([3]; 6.25 μM photosensitizer): 75.12% | Cell viability, Phototoxicity against AsPC-1 ([3]; 12.5 μM photosensitizer): 34.05% | Cell viability, Phototoxicity against AsPC-1 ([3]; 25 μM photosensitizer): 26.11% | Cell viability, Phototoxicity against AsPC-1 ([3]; 50 μM photosensitizer): 23.17% | Cell viability, Phototoxicity against MIA-PaCa-2 (MIA-PaCa-2; 3.12 μM photosensitizer): 94.15% | Cell viability, Phototoxicity against MIA-PaCa-2 (MIA-PaCa-2; 6.25 μM photosensitizer): 90.03% | Cell viability, Phototoxicity against MIA-PaCa-2 (MIA-PaCa-2; 12.5 μM photosensitizer): 85.20% | Cell viability, Phototoxicity against MIA-PaCa-2 (MIA-PaCa-2; 25 μM photosensitizer): 64.88% | Cell viability, Phototoxicity against MIA-PaCa-2 (MIA-PaCa-2; 50 μM photosensitizer): 48.21% | Cell viability, Phototoxicity against PANC-1 (PANC-1; 3.12 μM photosensitizer): 99.74% | Cell viability, Phototoxicity against PANC-1 (PANC-1; 6.25 μM photosensitizer): 96.76% | Cell viability, Phototoxicity against PANC-1 (PANC-1; 12.5 μM photosensitizer): 81.89% | Cell viability, Phototoxicity against PANC-1 (PANC-1; 25 μM photosensitizer): 81.07% | Cell viability, Phototoxicity against PANC-1 (PANC-1; 50 μM photosensitizer): 73.00% | Q-band peak [4]: 667 nm

C=Cc1c(C)c2cc3nc(c(CC(=O)OC)c4[nH]c(cc5nc(cc1[nH]2)C(C)=C5CC)c(C)c4C(=O)NCCOCCOCCNC(=O)CCCC(=O)Oc1ccc(/C=C/C(=O)CC(=O)/C=C/c2ccc(O)c(OC)c2)cc1OC)C(CCC(=O)OC)C3C (stereo not drawn) [Compound 13, Chlorine e6-curcumin Conjugate (13)]
viability at 3.12 μM [1]: 105% | viability at 6.25 μM [1]: 108% | viability at 12.5 μM [1]: 106% | viability at 25 μM [1]: 98.5% | viability at 50 μM [1]: 78.7% | viability at 3.12 μM [2]: 114% | viability at 6.25 μM [2]: 115% | viability at 12.5 μM [2]: 114% | viability at 25 μM [2]: 96.3% | viability at 50 μM [2]: 66.8% | Cell viability, Phototoxicity against AsPC-1 ([3]; 3.12 μM photosensitizer): 7.34% | Cell viability, Phototoxicity against AsPC-1 ([3]; 6.25 μM photosensitizer): 6.61% | Cell viability, Phototoxicity against AsPC-1 ([3]; 12.5 μM photosensitizer): 6.48% | Cell viability, Phototoxicity against AsPC-1 ([3]; 25 μM photosensitizer): 6.58% | Cell viability, Phototoxicity against AsPC-1 ([3]; 50 μM photosensitizer): 6.58% | inhibition at 3 µM ([3]; Homo sapiens, ASPC1, 3 μM concentration, with light): > 90% | Cell viability, Phototoxicity against MIA-PaCa-2 (MIA-PaCa-2; 3.12 μM photosensitizer): 4.68% | Cell viability, Phototoxicity against MIA-PaCa-2 (MIA-PaCa-2; 6.25 μM photosensitizer): 5.07% | Cell viability, Phototoxicity against MIA-PaCa-2 (MIA-PaCa-2; 12.5 μM photosensitizer): 4.93% | Cell viability, Phototoxicity against MIA-PaCa-2 (MIA-PaCa-2; 25 μM photosensitizer): 5.39% | Cell viability, Phototoxicity against MIA-PaCa-2 (MIA-PaCa-2; 50 μM photosensitizer): 5.90% | inhibition at 3 µM (MIA-PaCa-2; Homo sapiens, MIA PaCa-2, 3 μM concentration, with light): > 90% | Cell viability, Phototoxicity against PANC-1 (PANC-1; 3.12 μM photosensitizer): 8.51% | Cell viability, Phototoxicity against PANC-1 (PANC-1; 6.25 μM photosensitizer): 7.71% | Cell viability, Phototoxicity against PANC-1 (PANC-1; 12.5 μM photosensitizer): 7.53% | Cell viability, Phototoxicity against PANC-1 (PANC-1; 25 μM photosensitizer): 8.04% | Cell viability, Phototoxicity against PANC-1 (PANC-1; 50 μM photosensitizer): 7.28% | inhibition at 3 µM (PANC-1; Homo sapiens, PANC-1, 3 μM concentration, with light): > 90% | Q-band peak [4]: 667 nm

Dimethylester of Chlorine e6 [dimethyl ester ce6]
Q-band peak [4]: 656 nm
